Measured values as given in patent publication US20140018361A1, “IRAK INHIBITORS AND USES THEREOF” (Nimbus Iris, Inc., priority 2012, published 2014).
Where a name gives a salt, the structure may show the parent alone.

Molecular target: T1, IRAK4 (Homo sapiens, UniProt Q9NWZ3)
T1 construct: purchased CARNA Bioscience 09-145
T1 sequence (Q9NWZ3 1-460): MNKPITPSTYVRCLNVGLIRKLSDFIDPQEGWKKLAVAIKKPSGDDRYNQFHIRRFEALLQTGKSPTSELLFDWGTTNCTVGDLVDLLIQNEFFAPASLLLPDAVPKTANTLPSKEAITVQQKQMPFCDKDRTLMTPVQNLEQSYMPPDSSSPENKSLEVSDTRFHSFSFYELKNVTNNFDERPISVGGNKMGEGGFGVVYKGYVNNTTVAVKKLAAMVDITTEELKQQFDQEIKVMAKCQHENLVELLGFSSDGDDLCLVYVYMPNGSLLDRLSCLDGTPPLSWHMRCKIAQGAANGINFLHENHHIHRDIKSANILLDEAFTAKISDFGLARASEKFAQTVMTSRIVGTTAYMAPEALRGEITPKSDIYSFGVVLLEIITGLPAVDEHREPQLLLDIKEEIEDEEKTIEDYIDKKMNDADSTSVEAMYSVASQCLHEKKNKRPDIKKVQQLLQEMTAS
Experiment: IRAK-4 activity inhibition assay (Caliper)
Assay type: biochemical
Details: 3.5 nM IRAK4, 1.5 μM Peptide 8, 37 μM ATP, 28° C., 40 minutes
Method: A 1× kinase base buffer was prepared from 50 mM HEPES, pH 7.5 and 0.0015% Brij-35. A stop buffer was prepared from 100 mM HEPES, pH 7.5, 0.015% Brij-35, 0.2% Coating Reagent #3, and 50 mM EDTA.
Test compound was diluted to 50× of the final desired highest inhibitor concentration in reaction by 100% DMSO. 100 ul of this compound dilution was transferred to a well in a 96-well plate.
Test compound was serially diluted by transferring 30 μl to 60 μl of 100% DMSO in the next well and so forth for a total of 10 concentrations. 100 μl of 100% DMSO was added to two empty wells for no compound control and no enzyme control in the same 96-well plate.
A new 96-well plate was marked as intermediate plate. 5 μl of compound serial dilution was transferred from source plate to the corresponding wells of the intermediate plate. 45 μl of 1× kinase base buffer (KB buffer) was added to each well of the intermediate plate. The intermediate plate was placed for 10 min on a shaker.
5 μl of each well was transferred from the 96-well intermediate plate to a 384-well plate in duplicates. For example, A1 of the 96-well plate is transferred to A1 and A2 of the 384-well plate. A2 of the 96-well plate is transferred to A3 and A4 of the 384-well plate, and so on.
IRAK4 and DTT in 1× kinase base buffer was added. The 2.5× enzyme mix contained 8.8 nM IRAK4 and 5 mM DTT.
Peptide 8, ATP, MgCl2 and MnCl2 were added in the 1× kinase base buffer. The 2.5× peptide mix contained 3.75 μM peptide 8, 92.5 μM ATP, 12.5 mM MgCl2 and 2.5 mM MnCl2.
Assay plate already contained 5 μl of compound in 10% DMSO. Added 10 μl of 2.5× enzyme solution to each well of the 384-well assay plate, except no enzyme control wells. The final concentration of IRAK4 in reaction was 3.5 nM. Added 10 μl of 1× kinase base buffer to no enzyme control wells in the assay plate. Incubated at room temperature for 10 min.
Added 10 μl of 2.5× peptide solution to each well of the 384-well assay plate. The final concentration of Peptide 8 and ATP was 1.5 μM and 37 μM, respectively. Incubated at 28° C. for 40 minutes. Added 25 μl of stop buffer to stop reaction. Collected data on Caliper.
Copied conversion % data from Caliper program. Converted conversion % values to percent inhibition values. Percent inhibition=(max−conversion %)/(max−min)*100, where “max” means the conversion % of DMSO control and “min” means the conversion % of no enzyme control.

| Structure (SMILES) | IC50 |
| --- | --- |
| N#Cc1c[nH]c2ncnc(O[C@H]3CC[C@H](N4CCOCC4)CC3)c12 [Compound I-7, 4-(trans-(4-morpholinocyclohexyl)oxy)-7H-pyrrolo[2,3-d]pyrimidine-5-carbonitrile] | 1000 to 10000 nM |
| CN(C)[C@H]1CC[C@H](Nc2nc(N)nc3[nH]ccc23)CC1 [Compound I-8, 4-N-[4-(dimethylamino)cyclohexyl]-7H-pyrrolo[2,3-d]pyrimidine-2,4-diamine] | ≥ 10000 nM |
| CN(C)[C@H]1CC[C@H](Nc2ncnc3oc4c(c23)CCC4)CC1 [Compound I-10, N,N-dimethyl-4-N-[7-oxa-9,11-diazatricyclo[6.4.0.0[2,6]]dodeca-1(12),2(6),8,10-tetraen-12-yl]-trans-cyclohexane-1,4-diamine] | 1000 to 10000 nM |
| N[C@H]1CC[C@H](Nc2ncnc3oc4c(c23)CCC4)CC1 [Compound I-11, N^1-(6,7-dihydro-5H-cyclopenta[4,5]furo[2,3-d]pyrimidin-4-yl)-trans-cyclohexane-1,4-diamine] | ≥ 10000 nM |
| CN(C)[C@H]1CC[C@H](Nc2ncnc3occc23)CC1 [Compound I-12, N^1-(furo[2,3-d]pyrimidin-4-yl)-trans-N^4,N^4-dimethylcyclohexane-1,4-diamine formate] | ≥ 10000 nM |
| c1nc(O[C@H]2CC[C@H](N3CCOCC3)CC2)c2ccoc2n1 [Compound I-13, 4-(((trans)-4-morpholinocyclohexyl)oxy)furo[2,3-d]pyrimidine] | ≥ 10000 nM |
| CN(C)[C@H]1CC[C@H](Oc2ncnc3occc23)CC1 [Compound I-14, trans-4-(furo[2,3-d]pyrimidin-4-yloxy)-N,N-dimethylcyclohexanamine formate] | ≥ 10000 nM |

The next lines start with the values.

| IC50 | Structure (SMILES) |
| --- | --- |
| 100 to 1000 nM | CN(C)[C@H]1CC[C@H](Nc2ncnc3[nH]cc(C#N)c23)CC1 [Compound I-1, 4-[[4-(dimethylamino)cyclohexyl]amino]-7H-pyrrolo[2,3-d]pyrimidine-5-carbonitrile] |
| 100 to 1000 nM | CN(C)[C@H]1CC[C@H](Nc2nc(Nc3ccccc3)nc3[nH]ccc23)CC1 [Compound I-2, 4-N-[4-(dimethylamino)cyclohexyl]-2-N-phenyl-7H-pyrrolo[2,3-d]pyrimidine-2,4-diamine] |
| 100 to 1000 nM | CN(C)[C@H]1CC[C@H](Nc2ncnc3[nH]cc(F)c23)CC1 [Compound I-3, (trans)-N^1-(5-fluoro-7H-pyrrolo[2,3-d]pyrimidin-4-yl)-N^4,N^4-dimethylcyclohexane-1,4-diamine] |
| 1000 to 10000 nM | CN(C)[C@H]1CC[C@H](Oc2ncnc3[nH]cc(F)c23)CC1 [Compound I-4, (trans)-4-((5-fluoro-7H-pyrrolo[2,3-d]pyrimidin-4-yl)oxy)-N,N-dimethylcyclohexanamine] |
| 1000 to 10000 nM | CN(C)[C@H]1CC[C@H](Oc2ncnc3[nH]cc(C#N)c23)CC1 [Compound I-5, 4-[[4-(dimethylamino)cyclohexyl]oxy]-7H-pyrrolo[2,3-d]pyrimidine-5-carbonitrile] |
| 1000 to 10000 nM | Fc1c[nH]c2ncnc(O[C@H]3CC[C@H](N4CCOCC4)CC3)c12 [Compound I-6, 4-((trans)-4-((5-fluoro-7H-pyrrolo[2,3-d]pyrimidin-4-yl)oxy)cyclohexyl)morpholine] |
